Test results from patent US6821991B2, “2-substituted thiazolidinones as β-3 adrenergic receptor agonists” (Wyeth, priority 2000, dated 2004).

Columns and labels:
β3-adrenergic receptor = target: T1, β3-adrenergic receptor (Homo sapiens, UniProt P13945); experiment: cAMP accumulation (SPA) in CHO cells transfected with human β3 adrenergic receptor; format: cell-based; conditions: for EC50: CHO cells expressing human β3-AR, cAMP, 30 min, 37° C., 10^-9 M to 10^-5 M; for IA(β3): maximal response relative to maximal response of isoproterenol at 10^-5 M
T1 construct: Full length β3 AR clones (402 amino acids) containing the last 6 amino acids of hβ3-AR are prepared; expressed in transfected cells; host or cells: CHO (Chinese hamster ovary) cells
Method: The ability of compounds of this invention to treat or inhibit disorders related to insulin resistance or hyperglycemia was established with representative compounds of this invention in the following standard pharmacological test procedures, which measured the binding selectivity to the β1, β2, and β3 adrenergic receptors. Binding to the receptors was measured in Chinese Hamster ovary (CHO) cells that were transfected with adrenergic receptors.
Cloning of Human β3-AR Genomic DNA: CDNA was constructed by ligating four polymerase chain reaction (PCR) products using the following primers: an ATG-Narl fragment, sense primer 5′-[…]3′, and anti-sense primer 5′[…]3′; a Narl-Accl fragment, 5′[…]3′ as sense and 5′[…]3′ as anti-sense primer; an Accli-Styl fragment, sense primer 5′[…]3′ and anti-sense primer 5′[…]3′ and a Styl-TAG fragment, with sense primer 5′[…]3′ and anti-sense primer 5′[…]3′. The corresponding primer sequences are described in Mantzoros, C. […] The four fragments are ligated into a pUC 18 plasmid (Gibco-BRL) and sequenced.
Binding Procedure: Clones expressing receptor levels of 70 to 110 fmoles/mg protein were used in the test procedures. CHO cells were grown in 24-well tissue culture plates in Dulbecco's Modified Eagle Media with 10% fetal bovine serum, MEM non-essential amino acids, Penicillin-Streptompycin and Geneticin. On the day of test procedure, growth medium was replaced with preincubation media (Dulbecco's Modified Eagle Media) and incubated for 30 minutes at 37° C. […] Test compounds were tested over a concentration range of 10^−9 M to 10^−5 M for β3 cells and 10^−8 to 10^−4 M for β1 and β2 transfected cells. Isoproterenol (10^−5 M) was used as an internal standard for comparison of activity. Cells were incubated at 37° C. on a rocker for 30 min with the β3 cells and 15 min for β1 and β2 cells. Incubation was stopped with the addition of 0.2N HCl and neutralized with 2.5N NaOH. The plates, containing the cells and neutralized media, were stored at −20 degrees celsius until ready to test for cAMP using the SPA test kit (Amersham).
Data Analysis and Results: Data collected from the SPA test procedure were analyzed as per cent of the maximal isoproterenol response at 10^−5 M. Activity curves were plotted using the SAS statistical and graphics software.

T1 sequence (P13945 whole entry): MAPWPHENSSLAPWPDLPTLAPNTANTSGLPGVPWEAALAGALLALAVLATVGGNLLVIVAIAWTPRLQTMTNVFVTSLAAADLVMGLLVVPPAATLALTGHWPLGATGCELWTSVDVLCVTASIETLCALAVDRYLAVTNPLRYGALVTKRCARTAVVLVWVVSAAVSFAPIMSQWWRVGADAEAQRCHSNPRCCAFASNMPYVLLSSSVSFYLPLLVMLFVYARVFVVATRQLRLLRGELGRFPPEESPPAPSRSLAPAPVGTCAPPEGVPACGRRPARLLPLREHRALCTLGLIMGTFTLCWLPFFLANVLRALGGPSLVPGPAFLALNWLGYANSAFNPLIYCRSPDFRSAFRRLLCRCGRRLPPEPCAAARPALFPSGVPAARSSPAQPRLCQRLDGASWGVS

SMILES	EC50 (β3-adrenergic receptor) [nM]	IA(β3) (β3-adrenergic receptor)	melting point
CCOC(=O)CCNC1=NC(=O)C(=Cc2ccc(N3CCC(NC[C@H](O)COc4cccc5[nH]c(=O)[nH]c45)CC3)cc2)S1 [Example 8, 3-[5-(4-{4-[(2S)-2-Hydroxy-3-(2-oxo-2,3-dihydro-1H-benzoimidazol-4-yloxy)-propylamino]-piperidin-1-yl}-benzylidene)-4-oxo-4,5-dihydro-thiazol-2-ylamino]-propionic acid ethyl ester]	8	0.75	> 120 °C (dec.)
O=C1N=C(NO)SC1=Cc1ccc(N2CCC(NC[C@H](O)COc3cccc4[nH]c(=O)[nH]c34)CC2)cc1 [Example 10, 4-((2S)-2-Hydroxy-3-{1-[4-(2-hydroxyamino-4-oxo-4H-thiazol-5-ylidenemethyl)-phenyl]-piperidin-4-ylamino}-propoxy)-1,3-dihydro-benzoimidazol-2-one]	19	0.69	201 to 213 °C (dec.)
O=C1N=C(N2CCCCC2)SC1=Cc1ccc(N2CCC(NC[C@H](O)COc3ccc(O)cc3)CC2)cc1 [Example 16, 5-(4-{4-[(2S)-2-Hydroxy-3-(4-hydroxy-phenoxy)-propylamino]-piperidin-1-yl}-benzylidene)-2-piperidin-1-yl-thiazol-4-one]	75	0.96	> 85 °C (dec.)
O=C1N=C(N2CCOCC2)SC1=Cc1ccc(N2CCC(NC[C@H](O)COc3cccc4[nH]c(=O)[nH]c34)CC2)cc1 [Example 18, 4-((2S)-2-Hydroxy-3-{1-[4-(2-morpholin-4-yl-4-oxo-4H-thiazol-5-ylidenemethyl)-phenyl]-piperidin-4-ylamino}-propoxy)-1,3-dihydro-benzoimidazol-2-one]	3	0.89	> 150 °C (dec.)
Cl.Cl.O=C1N=C(N2CCOCC2)SC1=Cc1ccc(N2CCC(NC[C@H](O)COc3ccccc3)CC2)cc1 [Example 22, 5-{4-[4-((2S)-2-Hydroxy-3-phenoxy-propylamino)-piperidin-1-yl]-benzylidene}-2-morpholin-4-yl-thiazol-4-one dihydrochloride salt]	40	0.58	> 160 °C (dec.)
O=C1N=C(N2CCOCC2)SC1=Cc1ccc(N2CCC(NC[C@H](O)COc3ccc(O)cc3)CC2)cc1 [Example 23, 5-(4-{4-[(2S)-2-Hydroxy-3-(4-hydroxy-phenoxy)-propylamino]-piperidin-1-yl}-benzylidene)-2-morpholin-4-yl-thiazol-4-one]	76	0.78	> 100 °C (dec.)
CN1CCN(C2=NC(=O)C(=Cc3ccc(N4CCC(NC[C@H](O)COc5ccc(O)cc5)CC4)cc3)S2)CC1 [Example 24, 5-(4-{4-[(2S)-2-Hydroxy-3-(4-hydroxy-phenoxy)-propylamino]-piperidin-1-yl}-benzylidene)-2-(4-methyl-piperazin-1-yl)-thiazol-4-one]	1920	1.0	> 210 °C (dec.)
O=C1N=C(N2CCOCC2)SC1=Cc1ccc(N2CCC(NC[C@H](O)c3cccc(Cl)c3)CC2)cc1 [Example 25, 5-(4-{4-[(2R)-2-(3-Chloro-phenyl)-2-hydroxy-ethylamino]-piperidin-1-yl}-benzylidene)-2-morpholin-4-yl-thiazol-4-one]	450	0.51	> 70 °C (dec.)
CN(C)CCCNC1=NC(=O)C(=Cc2ccc(N3CCC(NC[C@H](O)COc4ccccc4)CC3)cc2)S1 [Example 26, 2-(3-Dimethylamino-propylamino)-5-{4-[4-((2S)-2-hydroxy-3-phenoxy-propylamino)-piperidin-1-yl]-benzylidene}-thiazol-4-one]	156	0.85	166 to 168 °C (dec.)
CCCCCCNC1=NC(=O)C(=Cc2ccc(N3CCC(NC[C@H](O)COc4ccccc4)CC3)cc2)S1 [Example 27, 2-Hexylamino-5-{4-[4-((2S)-2-hydroxy-3-phenoxy-propylamino)-piperidin-1-yl]-benzylidene}-thiazol-4-one]	–	0.58	182 to 184 °C (dec.)
O=C(O)CC[C@H](NC1=NC(=O)C(=Cc2ccc(N3CCC(NC[C@H](O)COc4cccc5[nH]c(=O)[nH]c45)CC3)cc2)S1)C(=O)O [Example 29, (2S)-2-[5-(4-{4-[(2S)-2-Hydroxy-3-(2-oxo-2,3-dihydro-1H-benzoimidazol-4-yloxy)-propylamino]-piperidin-1-yl}-benzylidene)-4-oxo-4,5-dihydro-thiazol-2-ylamino]-pentanedioic acid]	17	0.91	> 270 °C (dec.)
CCOC(=O)CC[C@H](NC1=NC(=O)C(=Cc2ccc(N3CCC(NC[C@H](O)c4ccc(O)c(NS(C)(=O)=O)c4)CC3)cc2)S1)C(=O)OCC [Example 30, (2S)-2-[5-(4-{4-[(2R)-2-Hydroxy-2-(4-hydroxy-3-methanesulfonylamino-phenyl)-ethylamino]-piperidin-1-yl}-benzylidene)-4-oxo-4,5-dihydro-thiazol-2-ylamino]-pentanedioic acid diethyl ester]	1	1.0	> 130 °C (dec.)
O=C1CCc2c(OC[C@@H](O)CNCCOc3ccc(C=C4SC(N5CCCCC5)=NC4=O)cc3)ccc(O)c2N1 [Example 34, 8-Hydroxy-5-((2S)-2-hydroxy-3-{2-[4-(4-oxo-2-piperidin-1-yl-4H-thiazol-5-ylidenemethyl)-phenoxy]-ethylamino}-propoxy)-3,4-dihydro-1H-quinolin-2-one]	3	1.0	> 115 °C (dec.)
